According to patent publication US9930890B2 (priority 2010, dated 2018):

What was measured:
[1] = test system: Phytophthora infestans; format: in vivo; conditions: tomato plants, protective spray, active ingredient concentration 100 ppm, evaluation 7 days after inoculation; 0% = control, 100% = no infection
[2] = test system: Plasmopara viticola; assay: Plasmopara test (grapevine)/protective; format: in vivo; conditions: grapevine young plants, protective spray, active ingredient concentration 10 ppm, evaluation 6 days after inoculation; 0% = control, 100% = no infection
Protocol: Plasmopara Test (Grapevine)/Protective
To produce an appropriate active ingredient formulation, 1 part by weight of active ingredient is mixed with the specified amounts of solvent and emulsifier, and the concentrate is diluted with water to the desired concentration.
To test for protective efficacy, young plants are sprayed with the active ingredient formulation at the stated application rate. After the spray coating has dried on, the plants are inoculated with an aqueous spore suspension of Plasmopara viticola and then remain in an incubation cabin at approx. 20° C. and 100% relative air humidity for 1 day. Subsequently, the plants are placed in a greenhouse at approx. 21° C. and approx. 90% air humidity for 4 days. The plants are then moistened and placed in an incubation cabin for 1 day.
Evaluation follows 6 days after the inoculation. 0% means an efficacy which corresponds to that of the control, whereas an efficacy of 100% means that no infection is observed.
In this test, the following inventive compounds show, at an active ingredient concentration of 10 ppm, an efficacy of 70% or more: […]

[3] = for logp [a]: pH 2.7; for logp [b]: pH 7.8

Row | SMILES | Eff. % [1] [%] | Eff. % [2] [%] | logp [a] [3] | logp [b] [3]
1 | Cc1cc(C(F)(F)F)nn1CC(=O)N1CCC(c2nc(C3=NOC(c4ccccc4OS(=O)(=O)C(F)(F)F)C3)cs2)CC1 (stereo not drawn) [I-125] | 89 | 100 | 3.99[a], | 4[b]
2 | CON=C(C)c1cccc(C2CC(c3csc(C4CCN(C(=O)Cn5nc(C(F)(F)F)cc5C)CC4)n3)=NO2)c1 (mixture of isomers) [I-3] | 100 | 97 | 3.7[a] | –
3 | C=CC(=O)Oc1ccccc1C1CC(c2csc(C3CCN(C(=O)Cn4nc(C(F)F)cc4C(F)F)CC3)n2)=NO1 (stereo not drawn) [I-116] | 98 | 100 | 3.21[a], | 3.15[b]
4 | C#CCOCc1ccccc1C1CC(c2csc(C3CCN(C(=O)Cn4nc(C(F)F)cc4C(F)F)CC3)n2)=NO1 (racemic) [I-53] | 94 | 96 | 3.31[a] | –
5 | Cc1cc(C(F)(F)F)nn1CC(=O)N1CCC(c2nc(C3=NOC(c4cccc(F)c4OS(=O)(=O)C4CC4)C3)cs2)CC1 (stereo not drawn) [I-114] | 94 | 100 | 3.43[a], | 3.42[b]
6 | O=C(Cn1nc(C(F)F)cc1C(F)F)N1CCC(c2nc(C3=NOC(c4cc(F)ccc4OS(=O)(=O)C4CC4)C3)cs2)CC1 (stereo not drawn) [I-84] | 90 | 100 | 3.32[a], | 3.35[b]
7 | CCON=Cc1ccccc1C1CC(c2csc(C3CCN(C(=O)Cn4nc(C(F)(F)F)cc4C)CC3)n2)=NO1 (mixture of isomers) [I-29] | 100 | 90 | 4[a] | –
8 | CC(=NO)c1cccc(C2CC(c3csc(C4CCN(C(=O)Cn5nc(C(F)(F)F)cc5C)CC4)n3)=NO2)c1 (mixture of isomers) [I-7] | 100 | 100 | 2.8[a] | –
9 | CC(=O)OCc1ccccc1C1CC(c2csc(C3CCN(C(=O)Cn4nc(C(F)F)cc4C(F)F)CC3)n2)=NO1 (racemic) [I-55] | 94 | 92 | 3.22[a] | –
10 | CCS(=O)(=O)Oc1cccc(C2CC(c3csc(C4CCN(C(=O)Cn5nc(C(F)F)cc5C(F)F)CC4)n3)=NO2)c1 (stereo not drawn) [I-77] | 98 | 93 | 3.08[a], | 2.99[b]
11 | CS(=O)(=O)Oc1c(F)cccc1C1CC(c2csc(C3CCN(C(=O)Cn4nc(C(F)F)cc4C(F)F)CC3)n2)=NO1 (stereo not drawn) [I-85] | 75 | 100 | 2.97[a], | 2.91[b]
12 | O=C(Cn1nc(C(F)F)cc1C(F)F)N1CCC(c2nc(C3=NOC(c4ccccc4OS(=O)(=O)C(F)(F)F)C3)cs2)CC1 (stereo not drawn) [I-115] | 88 | 100 | 3.92[a], | 3.92[b]
13 | N#CCOc1ccccc1C1CC(c2csc(C3CCN(C(=O)Cn4nc(C(F)F)cc4C(F)F)CC3)n2)=NO1 (stereo not drawn) [I-63] | 94 | 100 | 3[a], | 2.91[b]
14 | O=C(Oc1ccccc1C1CC(c2csc(C3CCN(C(=O)Cn4nc(C(F)F)cc4C(F)F)CC3)n2)=NO1)c1ccccc1F (stereo not drawn) [I-130] | 100 | 100 | 3.61[a], | 3.58[b]
15 | CSCOc1ccccc1C1CC(c2csc(C3CCN(C(=O)Cn4nc(C(F)F)cc4C(F)F)CC3)n2)=NO1 (stereo not drawn) [I-112] | 94 | 100 | 3.49[a], | 3.56[b]
16 | Cc1cc(C(F)(F)F)nn1CC(=O)N1CCC(c2nc(C3=NOC(c4c(F)cccc4OCC#N)C3)cs2)CC1 (stereo not drawn) [I-86] | 75 | 99 | 3.05[a], | 2.94[b]
17 | Cc1cc(C(F)(F)F)nn1CC(=O)N1CCC(c2nc(C3=NOC(c4c(Cl)cccc4OCC#N)C3)cs2)CC1 (stereo not drawn) [I-78] | 80 | 97 | 3.31[a], | 3.23[b]
